From article PMC9216188, “Expanding the Biological Properties of Alkannins and Shikonins: Their Impact on Adipogenesis and Life Expectancy in Nematodes” (Frontiers in Pharmacology, 2022)
Entries after “also recorded” stand apart in the source; their conditions may differ. Where two headings read alike, the source gives them in different places.

How the values were obtained:
PPAR-γ [1] = experiment: RT-PCR relative mRNA expression of PPAR-γ in differentiated 3T3-L1 cells; type: cell-based, Mouse; details: day 11
Description: (§1) 3T3-L1 pre-adipocytes were differentiated into mature adipocytes following the aforementioned differentiation protocol (vide infra). Briefly, pre-adipocytes were treated with either 10 ng/ml of insulin and/or hydroxynaphthoquinones (100 nM or 1 μΜ). The tested compounds were first dissolved in DMSO and subsequently in the culture medium, with the final concentration of DMSO not exceeding 0.1% v/v. The initial stock concentration was 50 mM. Cells treated with insulin were considered as positive control whereas untreated cells were included as vehicle control. On the 11th day of the differentiation process, cell differentiation was assessed and validated by oil red O staining, as described elsewhere ([Tsave et al., 2016]). Further validation of successful adipogenesis was also confirmed by the relative expression of closely related biomarkers PPAR-γ and adiponectin (ADIPOQ).
(§2) Total RNA was extracted from cells on the 11th day of the differentiation protocol, using TRItidy-G reagent. The concentration and purity (absorbance ratio 260/280) of the extracted RNA were measured with a NanoDrop™ 2000c spectrophotometer (Thermo Fisher Scientific, United States). Synthesis of cDNA was performed with the iScript cDNA synthesis kit according to manufacturer instructions. RT-PCR was run on Rotor Gene Q (Qiagen) using the iTaq Universal SYBR Green Supermix and appropriate reagents (Qiagen, United States).
(§3) Customized primers were used from Qiagen for adiponectin (Mm_Adipoq_1_SG, NM_009605, Q01048047), GAPDH (Mm Gapdh_3_SG, QT01658692) and mPPAR-γ forward 5′-GTCAGCGACTGGGACTTTTC-3′ and reverse 5′-CGAGGACATCCAAGACAACC-3’.

ADIPOQ [2] = experiment: RT-PCR relative mRNA expression of ADIPOQ in differentiated 3T3-L1 cells; type: cell-based, Mouse; details: day 11
Description: as §1, §2, §3

3T3-L1 pre-adipocytes [3] = experiment: Differentiation of 3T3-L1 cells, lipid quantification by Oil Red O staining; type: cell-based, Mouse; details: for lipid accumulation / lipid accumulation (formed lipids) / fold decrease in lipid accumulation: 1 μM, ORO stain, day 11; for lipid accumulation: absence of insulin; for lipid accumulation (formed lipids) / fold decrease in lipid accumulation: in the presence of insulin
Description: (§4) Mouse fibroblast 3T3-L1 preadipocytes were kindly donated by the Laboratory of Inorganic Chemistry, School of Chemical Engineering, Aristotle University of Thessaloniki (Thessaloniki, Greece) and cultured in 75 cm^2 cell culture flasks in high-glucose DMEM supplemented with 10% FBS, 100 units/mL penicillin and […] streptomycin at 37°C in 5% CO2 and standard humidity. Medium was changed three times per week, until cells reached confluence. Two days post-confluency (day 0), cells were induced to differentiate by treating them with a differentiation/induction medium containing DMEM supplemented with 0.5 mM IBMX, 1 μM DEX, […] of insulin, and 10% FBS. Three days later (day 3), the medium was replaced with DMEM containing 10% FBS and 1 μg/ml insulin for two more days, after which (day 5) the medium was changed to DMEM with 10% FBS. The medium was replaced every 2 days until cells were harvested on day 11 ([Tsave et al., 2018]).
as §1
3T3-L1 preadipocytes were seeded in 24-well plates at a density of 3.5 × 10^4 cells per well and differentiated as described above. On the 11th day, cells were washed three times with sterile PBS, fixed with formaldehyde 3.7%–4.0% for 20 min and stained with Oil Red O (ORO) solution for 10 min. Next, cells were washed with double distilled water (ddH2O) and stained lipids were observed and imaged under an inverted microscope, as described elsewhere ([Tsave et al., 2016]). The analysis and quantification of lipid accumulation—based on the amount of ORO dye—was performed by using ImageJ software (National Institutes of Health, United States). In brief, the RGB images with the stained lipids were converted to 8-bit grayscale (Image → Type → 8-bit). Next, a manual threshold was set (Image → Adjust → Threshold) for each sample and the stained areas were measured (Analyze → Measure) ([Mehlem et al., 2013]).

3T3-L1 pre-adipocytes [4] = experiment: Cell viability of undifferentiated 3T3-L1 cells (CellTiter-Glo); type: cell-based, Mouse; details: for inhibition of cell viability: 4 μM; for IC50: Mus musculus, read-out: IC50 (cell viability)
Description: as §4
(§5) Viability of undifferentiated 3T3-L1 cells upon treatment with various concentrations of the hydroxynaphthoquinones was assessed using CellTiter-Glo assay in opaque-walled 96-well plates. This method utilizes the luciferase reaction for quantifying adenosine triphosphate (ATP), which is an indicator of cellular metabolic activity. Through the luciferase reaction, luminescence is generated in proportion to the amount of available ATP. […] Briefly, cells were seeded in a 96-well plate at a density of 3.5 × 10^3 cells and a total volume of 100 μl per well. After 24 h incubation, cells were treated with different concentrations (10 nM–10 μΜ) of the hydroxynaphthoquinones for 24 and 48 h. After the respective incubation times, cells in each condition were treated with a volume of the reagent equal to the volume of cell culture medium present in each well. The luminescence was recorded with a Glomax 96 microplate luminometer (Promega Corporation, United States). Untreated cells served as control samples. Each assay was performed three times, with at least three replicates each.
(§6) All tested compounds were previously dissolved in DMSO. The final concentration of DMSO in each well was lower than 0.1%. To confirm that DMSO at that concentration was inert, a screening was performed at various concentrations (0.00002%–2%) and cell viability was assessed. Cell viability was expressed as the percentage of viability observed in each compound, compared to the untreated cells.

C. elegans N2 wild-type = experiment: C. elegans survival assay (nematocidal activity); type: in vivo, Caenorhabditis elegans; details: for % Survival after 10 days ±SD: N2 worms
Description: Caenorhabditis elegans wild-type var. Bristol N2, SS104 [glp-4 (bn2ts)] and Escherichia coli OP50 were provided by the Caenorhabditis Genetics Center (University of Minnesota, United States). Media and NGM agar plates have been prepared as described before ([Zwirchmayr et al., 2020]). OP50 were grown in LB medium for 8 h at 37°C, then harvested by centrifugation, washed twice with ddH2O and suspended in S-complete medium at 100 mg/ml. Worms were maintained on NGM agar plates inoculated with OP50. Synchronized cultures were prepared by egg-prep method ([Porta-de-la-Riva et al., 2012]) and experiments started at the […].
The survival assay was performed as described before: Briefly, a suspension of 5–18 synchronized L1 larvae (N2 wild-type) in S-complete medium were manually seeded into 96-well plates. OP50 at a concentration of 6 mg/ml was added immediately and worms were kept at 25°C. The following day, when all worms reached the L3 stage, the sterilizing-agent 5-Fluorodeoxyuridine (FUdR; 0.12 mM final; Sigma-Aldrich, F0503) was added to keep the population synchronized. The next day, samples were added in triplicate wells to the adult worm culture with DMSO as a carrier at a final concentration of 1%. The number of living worms in each well was counted on day 0, 3, 5, 7 and 10 of the treatment. The worms were oxygenized every 3 days and OP50 were added on day 5 of adulthood to prevent starvation. Results of three parallel experiments are presented as bar charts and are given as the mean survival rate of worms.

3T3-L1 pre-adipocytes [5] = tested on: 3T3-L1 pre-adipocytes; design: method as in Lee et al., 2010; Gwon et al., 2013; Ha et al., 2016; details: 0.5–2 μM ref Lee et al., 2010; Gwon et al., 2013; Ha et al., 2016; cited from earlier work
PPAR-γ [6] = tested on: PPAR-γ; design: method as in Lee et al., 2010; Gwon et al., 2013; details: 0.5–2 μM ref Lee et al., 2010; Gwon et al., 2013; cited from earlier work
ADIPOQ [7] = tested on: ADIPOQ; design: method as in Lee H.-Y. et al., 2009; details: 2 μM ref Lee H.-Y. et al., 2009; cited from earlier work
[8] = Cell viability of undifferentiated 3T3-L1 cells (CellTiter-Glo); type: cell-based, Mouse; details: mouse; 0.01, 0.1, and 1 μM, 24 h; read-out: cell viability (% of untreated cells)
Description: as §4, §5, §6

C. elegans = tested on: C. elegans; design: method as in Hunt et al., 2011; details: 100 to 500 μM, applied to solid agar medium ref Hunt et al., 2011; cited from earlier work
[9] = compound alone, absence of insulin

Compound | PPAR-γ mRNA expression, fold increase (PPAR-γ [1]; compound together with insulin) | ADIPOQ mRNA expression, fold increase (ADIPOQ [2]; [9]) | ADIPOQ mRNA expression, fold increase (ADIPOQ [2]; compound together with insulin) | lipid accumulation (3T3-L1 pre-adipocytes [3]) | lipid accumulation (formed lipids) (3T3-L1 pre-adipocytes [3]) | IC50 (3T3-L1 pre-adipocytes [4]; 3T3-L1 cells, 24 h) | other results
insulin: human recombinant insulin, positive control of differentiation [reference compound] | – | – | – | – | – | – | PPAR-γ mRNA expression, fold increase (PPAR-γ [1]; positive control sample (insulin group)): 10.78 fold; ADIPOQ mRNA expression, fold increase (ADIPOQ [2]; positive control sample (insulin)): 8.67 fold
CC(C)=CC[C@@H](OC(=O)C=C(C)C)C1=CC(=O)c2c(O)ccc(O)c2C1=O [DMAS, β,β-Dimethyl-acryl-shikonin] | 4.71 fold | 3.03 fold | 3.24 fold | 15.65% | 9.24% | – | PPAR-γ mRNA expression, fold increase (PPAR-γ [1]; [9]): 8.37 fold; concentrations showing reduced cell viability (3T3-L1 pre-adipocytes [4]; mouse, 24 h): > 4 µM; % Survival after 10 days ±SD (C. elegans N2 wild-type; 15 μg/ml): 73.87 ± 1.61 %; % Survival after 10 days ±SD (C. elegans N2 wild-type; 60 μg/ml): 62.22 ± 17.36 %
CC(C)=CC[C@@H](OC(=O)CC(C)(C)O)C1=CC(=O)c2c(O)ccc(O)c2C1=O [β-hydroxy-isovaleryl-shikonin, reference compound] | – | – | – | – | – | – | effect on adipogenesis (3T3-L1 pre-adipocytes [5]): inhibit adipogenesis
CC(C)=CC[C@@H](O)C1=CC(=O)c2c(O)ccc(O)c2C1=O [S, Shikonin] | 1.27 fold | 2.4 fold | < 1 fold | 2.58% | – | < 3000 nM | effect on expression of PPAR-γ (PPAR-γ [6]): significantly inhibited; fold decrease in lipid accumulation (3T3-L1 pre-adipocytes [3]): 22 fold; effect on ADIPOQ expression (ADIPOQ [7]): strongly inhibit; effect on adipogenesis (3T3-L1 pre-adipocytes [5]): inhibit adipogenesis; viability [8]: > 146%; inhibition of cell viability (3T3-L1 pre-adipocytes [4]; 24 h): more than 90%
CC(C)=CCCC1=CC(=O)c2c(O)ccc(O)c2C1=O [DS, Deoxy-shikonin] | 5.08 fold | strongest inhibition; also recorded: complete impediment of ADIPOQ expression | 4.85 fold | 1.78% | exceeded 10% | – | concentrations showing reduced cell viability (3T3-L1 pre-adipocytes [4]; 24 h): > 4 µM
CC(=O)O[C@H](CC=C(C)C)C1=CC(=O)c2c(O)ccc(O)c2C1=O [ACS, Acetyl-shikonin] | – | – | – | – | – | – | concentrations showing reduced cell viability (3T3-L1 pre-adipocytes [4]; 24 h): > 4 µM
CC(C)=CC[C@H](O)C1=CC(=O)c2c(O)ccc(O)c2C1=O [A, Alkannin] | 0.20 fold | strongest inhibition | not showing any increase at all | 1.56% | – | < 3000 nM | fold decrease in lipid accumulation (3T3-L1 pre-adipocytes [3]): 37 fold; inhibition of the formation of lipids (3T3-L1 pre-adipocytes [3]; in the presence of insulin (Figure 4)): ~100%; viability [8]: > 146%; inhibition of cell viability (3T3-L1 pre-adipocytes [4]; 24 h): more than 90%
CC(C)=CC[C@@H](OC(=O)CC(C)C)C1=CC(=O)c2c(O)ccc(O)c2C1=O [IVS, Isovaleryl-shikonin] | – | – | – | – | – | 8660 nM | concentrations showing reduced cell viability (3T3-L1 pre-adipocytes [4]; mouse, 24 h): > 4 µM
O=C1C=CC(=O)c2c(O)ccc(O)c21 [NAPH, Naphthazarin] | 5.2 fold | 1.79 fold | 2.13 fold | 5.74% | exceeded 10% | – | IC50 (3T3-L1 pre-adipocytes [4]; 3T3-L1, 24 h): < 3000 nM; % Survival after 10 days ±SD (C. elegans N2 wild-type; 15 μg/ml): 0.00 ± 0.00 %; worms surviving the first 3 days of treatment (C. elegans N2 wild-type; 15 μg/ml, day 3): 50%; % Survival after 10 days ±SD (C. elegans N2 wild-type; 60 μg/ml): 0.00 ± 0.00 %; nematodes dead at the third day of treatment (C. elegans N2 wild-type; 60 μg/ml, day 3): ~100%; effect on lifespan of C. elegans (C. elegans): extend the lifespan
